# US7811832B2, “Methods for preserving the viability of photoreceptor cells by anti-FAS-ligand/anti-FAS-receptor antibodies” (Massachusetts Eye and Ear Infirmary, priority 2002, dated 2010)
# Assays:
# [1] = target: T1, caspase 1 (Homo sapiens, UniProt P29466); conditions: cited from earlier work
# T1 sequence (P29466 120-297 limits assumed): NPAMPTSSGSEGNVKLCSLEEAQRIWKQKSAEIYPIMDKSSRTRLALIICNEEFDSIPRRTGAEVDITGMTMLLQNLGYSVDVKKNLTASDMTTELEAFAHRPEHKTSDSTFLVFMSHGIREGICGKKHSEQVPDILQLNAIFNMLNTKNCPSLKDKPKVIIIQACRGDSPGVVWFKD
# T1 sequence (P29466 317-404 limits assumed): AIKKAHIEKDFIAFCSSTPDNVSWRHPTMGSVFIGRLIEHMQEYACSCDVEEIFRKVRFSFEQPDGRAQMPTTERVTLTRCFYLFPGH
# [2] = target: T2, caspase 4 (Homo sapiens, UniProt P49662); conditions: cited from earlier work
# T2 sequence (P49662 81-270 limits assumed): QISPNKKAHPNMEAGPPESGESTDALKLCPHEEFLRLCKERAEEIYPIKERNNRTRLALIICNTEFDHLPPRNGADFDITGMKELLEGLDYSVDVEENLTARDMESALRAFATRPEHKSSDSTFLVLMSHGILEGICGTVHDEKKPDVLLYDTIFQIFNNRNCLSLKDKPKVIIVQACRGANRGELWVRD
# T2 sequence (P49662 290-377 limits assumed): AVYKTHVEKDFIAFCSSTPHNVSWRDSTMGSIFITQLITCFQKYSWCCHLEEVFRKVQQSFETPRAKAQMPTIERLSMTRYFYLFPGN
# [3] = target: T3, caspase 3 (Homo sapiens, UniProt P42574); conditions: cited from earlier work
# T3 sequence (P42574 29-175 limits assumed): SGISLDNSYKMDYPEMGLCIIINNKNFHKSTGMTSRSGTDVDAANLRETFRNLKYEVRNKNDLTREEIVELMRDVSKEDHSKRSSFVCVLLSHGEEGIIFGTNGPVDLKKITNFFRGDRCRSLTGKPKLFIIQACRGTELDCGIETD
# T3 sequence (P42574 176-277 limits assumed): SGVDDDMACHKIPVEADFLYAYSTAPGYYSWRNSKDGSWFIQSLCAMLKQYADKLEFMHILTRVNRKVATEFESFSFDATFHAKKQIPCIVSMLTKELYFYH
# [4] = target: T4, caspase 7 (Homo sapiens, UniProt P55210); conditions: cited from earlier work
# T4 sequence (P55210 24-198 limits assumed): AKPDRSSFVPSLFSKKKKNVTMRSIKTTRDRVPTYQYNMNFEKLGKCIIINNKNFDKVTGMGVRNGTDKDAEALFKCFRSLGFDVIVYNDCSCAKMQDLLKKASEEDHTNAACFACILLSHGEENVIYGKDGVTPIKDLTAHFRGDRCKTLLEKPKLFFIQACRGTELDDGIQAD
# T4 sequence (P55210 207-303 limits assumed): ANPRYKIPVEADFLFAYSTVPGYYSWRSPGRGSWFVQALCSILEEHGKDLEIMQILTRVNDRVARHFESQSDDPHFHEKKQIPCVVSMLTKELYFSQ
# [5] = test system: caspase 9; test: Caspase 9 activity (LEHD-pNA cleavage) in detached retina after injection of inhibitor at the time of detachment; format: in vivo, Brown-Norway rats; conditions: 5 μl of 2 mM solution in DMSO into the subretinal space, 24 hours after retinal detachment, normalized to attached retina
# Experimental: Briefly, rats were anesthetized with a 50:50 mix of ketamine (100 mg/ml) and xylazine (20 mg/ml), and pupils were dilated with topical phenylephrine (2.5%) and tropicamide (1%). A sclerotomy was created approximately 2 mm posterior to the limbus with a 20-guage microvitreoretinal blade (Walcott Scientific, Marmora, N.J.), with special caution to not damage the lens. A Glaser subretinal injector (32-gauge tip; BD Ophthalmic Systems, Sarasota, Fla.) connected to a syringe filled with 10 mg/ml sodium hyaluronate (Healon®; Pharmacia and Upjohn Co., Kalamazoo, Mich.) was introduced through the sclerotomy into the vitreous cavity. The tip of the subretinal injector was introduced into the subretinal space through a peripheral retinotomy, and the sodium hyaluronate was slowly injected. The neurosensory retina was thus detached from the underlying retinal pigment epithelium. In all experiments, approximately one-third to one-half of the retina was detached. Detachments were made in the left eye, with the right eye serving as the control. […]
# Caspase 9 activity was measured using a calorimetric tetrapeptide LEHD-pNA cleavage assay kit according to the manufacturer's instructions (BioVision, Mountain View, Calif.). […] Absorbance was measured at 405 nm in a microplate reader (SpectraMAX 190, Molecular Devices). […]
# [6] = test system: photoreceptor cells; test: TUNEL staining of outer nuclear layer after experimental retinal detachment; format: in vivo, Brown Norway rats; conditions: detached retina (left eye); 5 μl of 2 mM in DMSO subretinal; 72 hours after detachment; TUNEL-positive cells/100 cells in outer nuclear layer
# Experimental: Briefly, the retinal detachments were created in the left eyes of three Brown Norway rats, as described in Example 2, section 2.1. The detachment was located on the temporal portion of the retina, and comprised approximately one third of the total retinal area.
# A first rat received the retinal detachment only. A second rat received the retinal detachment and a caspase 9 inhibitor in DMSO. Briefly, immediately after the retina was detached, 5 μl of the zLEHD.fmk (2 mM solution in DMSO) (BioVision) was injected into the subretinal space of the detached retina using a Hamilton Syringe (Hamilton Corp, Reno, Nev.). A third rat received the retinal detachment and DMSO (solvent control). Briefly, 5 μl of DMSO was injected into the subretinal space of the detached retinas as a control for the solvent in which the zLEHD.fmk was dissolved.
# The rats were allowed to recover from the surgery and were returned to their cages, as per standard animal care protocols. Seventy-two hours (3 days) after creation of the detachments, the eyes were enucleated and immersion-fixed in 4% paraformaldehyde solution for 24 hours. The fixed eyes were then embedded in paraffin and sectioned for histologic analysis. […]
# The number of TUNEL-positive cells/100 cells in the outer nuclear layer were counted for 3 high power fields per section for 2 separate slides.
"caspase 9 activity, % of the control level [5]",Substance,Ki [1] [nM],Ki [2] [nM],Ki [3] [µM],Ki [4] [µM],% TUNEL positive cells [6] [% TUNEL positive]
–,Ac-Tyr-Val-Ala-Asp-aldehyde,10,10,≥ 50,≥ 50,–
approximately 50%,z-Leu-Glu-His-Asp-fluoromethylketone [zLEHD.fmk],–,–,–,–,4.6
